Entries after “also recorded” stand apart in the source; their conditions may differ. Like-named read-outs stand apart in the source and are kept apart here.
Legend:
human CB2 receptor [1] = biological target: T1, human CB2 receptor (Homo sapiens, UniProt P34972); experiment: cAMP accumulation assay, CHO cells expressing CB2; type: cell-based; details: in words; standard ligands partly from the literature
human GPR18 [2] = biological target: T2, human GPR18 (Homo sapiens, UniProt Q14330); details: for functional property at GPR18 (agonist/antagonist): in words; for agonist effect on β-arrestin recruitment at GPR18: test compound 10 µM, related to effect of Δ9-THC 10 µM = 100%
T2 sequence (Q14330 1-331): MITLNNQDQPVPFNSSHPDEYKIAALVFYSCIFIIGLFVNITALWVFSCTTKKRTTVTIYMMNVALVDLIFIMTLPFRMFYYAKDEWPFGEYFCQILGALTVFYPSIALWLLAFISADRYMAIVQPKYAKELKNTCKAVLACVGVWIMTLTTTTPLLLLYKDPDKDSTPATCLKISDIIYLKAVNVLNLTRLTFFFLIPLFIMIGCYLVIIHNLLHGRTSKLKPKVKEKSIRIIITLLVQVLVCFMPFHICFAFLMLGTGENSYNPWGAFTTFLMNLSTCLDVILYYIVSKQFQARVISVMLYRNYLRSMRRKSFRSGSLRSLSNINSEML

human GPR55 = human GPR55 (Homo sapiens, UniProt Q9Y2T6); experiment: β-arrestin recruitment assay (PathHunter), CHO cells expressing GPR55; details: for inhibition at 10 µM: CHO; for IC50: antagonist mode vs. LPI (1 µM); for functional property at GPR55 (agonist/antagonist): in words; for agonist effect on β-arrestin recruitment at GPR55: test compound 10 µM, related to effect of LPI 1 µM = 100%
human GPR18 [3] = biological target: T2, human GPR18; experiment: cell-based; details: for inhibition at 10 µM: CHO, read-out: % inhibition of Δ9-THC (10 µM)-induced β-arrestin recruitment at GPR18, test compound at 10 µM; for IC50: GPR18 IC50, β-arrestin recruitment, antagonist mode vs. Δ9-THC (10 µM)
human CB1 receptor [4] = biological target: T3, human CB1 receptor (Homo sapiens, UniProt P21554); experiment: cAMP accumulation assay, CHO cells expressing CB1; type: cell-based
human CB2 receptor [5] = biological target: T1, human CB2 receptor; experiment: Radioligand binding (heterologous competition) vs. [3H]CP55,940 at CB2; details: for Ki: three independent experiments in duplicates
human CB1 receptor [6] = biological target: T3, human CB1 receptor; experiment: biochemical; type: binding; details: for Ki: membranes of CHO cells expressing human CB1, three independent experiments in duplicates, read-out: Ki CB1, heterologous competition vs. [3H]CP55,940; for inhibition at 10 µM: vs. [3H]CP55,940, read-out: % inhibition of radioligand binding at CB1
[7] = read-out: % inhibition of LPI (1 µM)-induced β-arrestin recruitment at GPR55
[8] = GPR55 IC50, β-arrestin recruitment
[9] = membranes of CHO cells expressing human CB2, read-out: Ki CB2, heterologous competition vs. [3H]CP55,940
[10] = read-out: % inhibition of LPI (1 µM)-induced β-arrestin recruitment at GPR55, test compound at 10 µM
[11] = Ki CB2, heterologous competition vs. [3H]CP55,940, membranes of CHO cells expressing human CB2

T3 sequence (P21554 whole entry): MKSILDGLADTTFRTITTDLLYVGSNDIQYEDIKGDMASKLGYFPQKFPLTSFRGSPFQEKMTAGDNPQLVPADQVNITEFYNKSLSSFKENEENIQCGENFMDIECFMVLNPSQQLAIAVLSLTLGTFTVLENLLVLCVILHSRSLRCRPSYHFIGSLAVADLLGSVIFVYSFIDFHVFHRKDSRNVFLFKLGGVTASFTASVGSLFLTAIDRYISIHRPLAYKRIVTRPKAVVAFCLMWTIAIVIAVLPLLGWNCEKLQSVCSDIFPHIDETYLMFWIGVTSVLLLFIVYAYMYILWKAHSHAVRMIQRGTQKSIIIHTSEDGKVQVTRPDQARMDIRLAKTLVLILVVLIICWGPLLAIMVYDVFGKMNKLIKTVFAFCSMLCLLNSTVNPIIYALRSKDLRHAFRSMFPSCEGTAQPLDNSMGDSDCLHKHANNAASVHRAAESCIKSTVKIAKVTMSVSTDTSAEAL
T1 sequence (P34972 whole entry): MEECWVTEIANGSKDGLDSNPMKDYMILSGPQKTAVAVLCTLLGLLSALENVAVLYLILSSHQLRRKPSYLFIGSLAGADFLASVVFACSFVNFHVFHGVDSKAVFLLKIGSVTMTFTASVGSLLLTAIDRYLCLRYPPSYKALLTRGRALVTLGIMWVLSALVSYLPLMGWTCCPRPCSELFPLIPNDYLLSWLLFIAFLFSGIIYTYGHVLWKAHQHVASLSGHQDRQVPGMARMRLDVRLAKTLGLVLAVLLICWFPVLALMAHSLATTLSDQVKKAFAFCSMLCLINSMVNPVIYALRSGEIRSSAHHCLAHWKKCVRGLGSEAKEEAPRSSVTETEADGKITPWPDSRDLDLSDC
Sequence of human GPR55 (Q9Y2T6 whole entry): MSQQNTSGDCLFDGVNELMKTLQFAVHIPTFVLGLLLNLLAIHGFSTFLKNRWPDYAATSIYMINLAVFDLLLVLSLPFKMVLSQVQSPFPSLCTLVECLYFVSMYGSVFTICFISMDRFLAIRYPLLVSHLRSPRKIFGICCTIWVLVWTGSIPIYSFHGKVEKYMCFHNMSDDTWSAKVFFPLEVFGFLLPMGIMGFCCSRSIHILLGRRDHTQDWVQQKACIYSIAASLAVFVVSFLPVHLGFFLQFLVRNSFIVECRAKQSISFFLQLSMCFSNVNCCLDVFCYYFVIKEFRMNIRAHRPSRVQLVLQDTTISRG

SMILES	agonist effect on β-arrestin recruitment at GPR18 (human GPR18 [2])	EC50 (human GPR55)	IC50 (human GPR55; [8])	agonist effect on β-arrestin recruitment at GPR55 (human GPR55)	EC50 (human GPR18 [3])	inhibition at 10 µM (human GPR18 [3])	IC50 (human GPR18 [3])	Ki (human CB2 receptor [5]; [9])	inhibition at 10 µM (human GPR55; [10])	Ki (human CB1 receptor [6])	other results
CCCCCCC(C)(C)c1ccc(C2CC(O)CCC2CCCO)c(O)c1 (single isomer, unassigned; (-)) [Compound 4, (-)-cis-3-[2-hydroxy-4-(1,1-dimethylheptyl)phenyl]-trans-4-(3-hydroxypropyl)cyclohexanol, reference compound]	0%	> 10 µM	1.61 ± 0.47 µM	4%	> 10 µM	188%	5.99 ± 1.88 µM	–	–	–	functional property at CB2 (agonist/antagonist) (human CB2 receptor [1]): agonist; functional property at GPR18 (agonist/antagonist) (human GPR18 [2]): inverse agonistic activity; also recorded: antagonist; inhibition at 10 µM (human GPR55; [7]): 93%; functional property at GPR55 (agonist/antagonist) (human GPR55): antagonistic activity; also recorded: antagonist; functional property at CB1 (agonist/antagonist) (human CB1 receptor [4]): agonist
CCCCCc1cc(O)c2c(c1)OC(C)(C)[C@@H]1CCC(C)=C[C@@H]21 [Compound 1, Δ^9-tetrahydrocannabinol, reference compound]	–	> 10 µM	–	0%	–	0%	> 10 µM	–	–	–	functional property at CB2 (agonist/antagonist) (human CB2 receptor [1]): agonist; functional property at GPR18 (agonist/antagonist) (human GPR18 [2]): agonist; EC50 (human GPR18 [2]; read-out: GPR18 EC50, β-arrestin recruitment, agonist mode): 4.61 ± 0.5 µM; inhibition at 10 µM (human GPR55; [7]): 65%; functional property at GPR55 (agonist/antagonist) (human GPR55): antagonist; IC50 (human GPR55; read-out: GPR55 IC50, β-arrestin recruitment): 14.2 ± 5.4 µM
Cc1c(C(=O)NN2CCCCC2)nn(-c2ccc(Cl)cc2Cl)c1-c1ccc(Cl)cc1 [Compound 5, rimonabant, reference compound]	0%	–	> 10 µM	–	> 10 µM	94%	–	–	–	–	functional property at CB2 (agonist/antagonist) (human CB2 receptor [1]): antagonist; functional property at GPR18 (agonist/antagonist) (human GPR18 [2]): antagonist; IC50 (human GPR18 [2]; read-out: GPR18 IC50, β-arrestin recruitment, antagonist mode vs. Δ9-THC (10 µM)): 10.1 ± 1.3 µM; inhibition at 10 µM (human GPR55; [7]): 0%; functional property at GPR55 (agonist/antagonist) (human GPR55): agonist; EC50 (human GPR55; read-out: GPR55 EC50, β-arrestin recruitment, agonist mode): 2.01 ± 0.66 µM
CCCCCCc1ccc(O)c(-c2ccccc2O)c1 [Compound 49]	0%	> 10 µM	> 10 µM	39%	> 10 µM	48%	~10 µM	1.5 ± 0.64 µM	34%	6.63 ± 5.03 µM	–
CCCc1ccc(O)c(-c2cc(C)ccc2O)c1 [Compound 50]	0%	> 10 µM	> 10 µM	26%	> 10 µM	21%	> 10 µM	–	4%	> 1 µM	Ki (human CB2 receptor [5]; [11]): 7.38 ± 2.76 µM; inhibition at 10 µM (human CB1 receptor [6]): 20%
CCCCc1ccc(O)c(-c2cc(C)ccc2O)c1 [Compound 51]	0%	> 10 µM	> 10 µM	18%	> 10 µM	44%	~10 µM	1.69 ± 0.53 µM	0%	~1 µM	inhibition at 10 µM (human CB1 receptor [6]): 44%
CCCCCc1ccc(O)c(-c2cc(C)ccc2O)c1 [Compound 52]	0%	> 10 µM	> 10 µM	9%	> 10 µM	45%	~10 µM	0.517 ± 0.101 µM	0%	1.23 ± 0.47 µM	–
CCCCCCc1ccc(O)c(-c2cc(C)ccc2O)c1 [Compound 53]	0%	> 10 µM	> 10 µM	28%	> 10 µM	118%	11.5 ± 1.3 µM	0.273 ± 0.096 µM	0%	0.822 ± 0.224 µM	–
CCCc1ccc(O)c(-c2cc(CC)ccc2O)c1 [Compound 54]	0%	> 10 µM	> 10 µM	0%	> 10 µM	67%	10.5 ± 0.9 µM	0.856 ± 0.367 µM	19%	~1 µM	inhibition at 10 µM (human CB1 receptor [6]): 43%
CCCCc1ccc(O)c(-c2cc(CC)ccc2O)c1 [Compound 55]	0%	> 10 µM	> 10 µM	2%	> 10 µM	40%	~10 µM	0.235 ± 0.101 µM	18%	5.76 ± 2.85 µM	selectivity for CB2 receptors over CB1 (human CB2 receptor [5]; from Ki values): ~25 fold
CCCCCc1ccc(O)c(-c2cc(CC)ccc2O)c1 [Compound 56]	0%	> 10 µM	> 10 µM	3%	> 10 µM	95%	13.6 ± 0.7 µM	0.161 ± 0.033 µM	2%	0.634 ± 0.297 µM	–
CCCCCCc1ccc(O)c(-c2cc(CC)ccc2O)c1 [Compound 57]	0%	> 10 µM	> 10 µM	–	> 10 µM	113%	12.5 ± 0.8 µM	–	0%	0.386 ± 0.029 µM	Ki (human CB2 receptor [5]; [11]): 0.083 ± 0.0118 µM
CCCCc1ccc(O)c(-c2cc(CCC)ccc2O)c1 [Compound 58]	0%	> 10 µM	~10 µM	21%	> 10 µM	104%	13.5 ± 1.7 µM	0.468 ± 0.133 µM	44%	3.61 ± 0.17 µM	–
CCCc1ccc(O)c(-c2cc(C(C)(C)C)ccc2O)c1 [Compound 59]	0%	> 10 µM	~10 µM	0%	> 10 µM	54%	~10 µM	0.489 ± 0.049 µM	54%	5.81 ± 2.67 µM	–

From article PMC3813752 (PLoS ONE, 2013)
